US10261079B2, “Method for determining kinetic profiles in drug discovery” (priority 2015, dated 2019)

Tests used:
PI3Kdelta = biological target: T1, PI3Kdelta (Homo sapiens, UniProt O00329); assay: TR-FRET kinetic competitive binding, Binding Kinetic Profiling mode; settings: Tracer 314 5 nM, compound 250 nM to 0
T1 construct: purchased Carna Biosciences
Source text: X is time, expressed in min.
The present example illustrates the kinetic characterization of two different inhibitors against the same target by using the platform of the invention in the Binding Kinetic Profiling mode. […] The characterized Tracer^314 (Life Technologies) has been used as labeled ligand (tracer).
In order to determine the kinetic profile of these inhibitors (Kon, Koff, Kd and t1/2), experimental data were fitted to the “Kinetics of competitive binding”. This model describes the kinetic behavior of two compounds when compete for the binding to the same target.
The experiment is performed as described in Example 1 for the tracer characterization. The samples are prepared in the kinase buffer A at the same concentrations described in example 1 (PI3Kdelta at 0.5 nM and Eu-antiGST antibody at 2 nM). Control wells in the microplate with PI-103 inhibitor at 10 μM are also included to account for unspecific binding. […] These serial dilutions were prepared in a mother plate (at 2 times the assay concentration) and quickly dispensed to the analysis plate, being the last one disposed in the well the kinase PI3Kdelta.
The tracer concentration (L) is also constrained to the tracer concentration employed in the assay, i.e., 5 nM in the present example. […] The term t1/2 is calculated as −ln[0.5] divided by the K4 value.

CDK8/Cyclin C = CDK8/Cyclin C (Homo sapiens, UniProt P49336); assay: TR-FRET kinetic competitive binding, Kinetic Selectivity Profiling mode; settings: Tracer 236 10 nM, kinase 2 nM
CDK8/Cyclin C, sequence (P49336 whole entry, species assumed): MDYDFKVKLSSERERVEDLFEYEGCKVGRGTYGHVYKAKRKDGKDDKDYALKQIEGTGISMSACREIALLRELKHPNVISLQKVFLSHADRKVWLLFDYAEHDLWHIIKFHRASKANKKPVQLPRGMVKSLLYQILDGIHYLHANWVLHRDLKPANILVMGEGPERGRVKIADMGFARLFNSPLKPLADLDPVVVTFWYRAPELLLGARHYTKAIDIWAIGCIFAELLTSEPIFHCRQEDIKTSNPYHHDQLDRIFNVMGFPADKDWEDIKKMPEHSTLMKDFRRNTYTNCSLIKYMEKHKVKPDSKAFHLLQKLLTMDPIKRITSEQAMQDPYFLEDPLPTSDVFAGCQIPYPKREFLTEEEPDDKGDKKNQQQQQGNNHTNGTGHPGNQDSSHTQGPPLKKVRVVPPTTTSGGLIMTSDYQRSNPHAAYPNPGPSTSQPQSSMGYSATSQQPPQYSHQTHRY
CDK8/Cyclin C, sequence (P24863 whole entry partner, species assumed): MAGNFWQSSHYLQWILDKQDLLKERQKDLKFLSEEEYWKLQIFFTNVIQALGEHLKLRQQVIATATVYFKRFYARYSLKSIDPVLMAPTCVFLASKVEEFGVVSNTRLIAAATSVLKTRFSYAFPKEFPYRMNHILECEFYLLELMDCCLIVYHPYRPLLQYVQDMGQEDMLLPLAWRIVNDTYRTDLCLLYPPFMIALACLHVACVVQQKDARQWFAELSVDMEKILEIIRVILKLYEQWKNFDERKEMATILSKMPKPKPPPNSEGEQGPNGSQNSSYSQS
Source text: SQRT is the mathematical abbreviation for squared root. X is time, expressed in min.

T1 sequence (O00329 whole entry): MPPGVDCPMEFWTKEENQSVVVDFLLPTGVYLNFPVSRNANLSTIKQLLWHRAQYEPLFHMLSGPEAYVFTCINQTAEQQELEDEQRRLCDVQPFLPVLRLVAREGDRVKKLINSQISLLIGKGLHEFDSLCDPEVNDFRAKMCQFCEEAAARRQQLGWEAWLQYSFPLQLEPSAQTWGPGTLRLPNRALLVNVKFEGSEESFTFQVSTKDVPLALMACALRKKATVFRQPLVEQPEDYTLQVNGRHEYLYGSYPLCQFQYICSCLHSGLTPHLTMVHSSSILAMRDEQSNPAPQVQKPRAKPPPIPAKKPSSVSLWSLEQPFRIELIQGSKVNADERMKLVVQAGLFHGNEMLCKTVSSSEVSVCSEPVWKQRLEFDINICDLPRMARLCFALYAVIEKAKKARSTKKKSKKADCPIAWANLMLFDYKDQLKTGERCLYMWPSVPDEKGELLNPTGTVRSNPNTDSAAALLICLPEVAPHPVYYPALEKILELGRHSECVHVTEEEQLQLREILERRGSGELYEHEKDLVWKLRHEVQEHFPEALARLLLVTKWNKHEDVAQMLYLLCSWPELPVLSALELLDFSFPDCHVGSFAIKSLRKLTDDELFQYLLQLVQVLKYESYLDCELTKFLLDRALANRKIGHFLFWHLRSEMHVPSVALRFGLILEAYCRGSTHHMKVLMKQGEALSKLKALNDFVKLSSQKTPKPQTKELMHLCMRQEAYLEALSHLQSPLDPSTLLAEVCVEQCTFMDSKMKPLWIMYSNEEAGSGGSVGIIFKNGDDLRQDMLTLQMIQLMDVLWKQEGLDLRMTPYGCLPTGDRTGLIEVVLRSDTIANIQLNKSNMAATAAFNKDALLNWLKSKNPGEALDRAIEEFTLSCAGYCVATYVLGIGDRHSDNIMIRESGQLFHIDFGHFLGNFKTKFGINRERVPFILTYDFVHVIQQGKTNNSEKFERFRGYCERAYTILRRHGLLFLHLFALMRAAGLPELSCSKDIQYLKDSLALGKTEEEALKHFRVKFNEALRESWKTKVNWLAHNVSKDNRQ
T1 sequence (P27986 whole entry partner): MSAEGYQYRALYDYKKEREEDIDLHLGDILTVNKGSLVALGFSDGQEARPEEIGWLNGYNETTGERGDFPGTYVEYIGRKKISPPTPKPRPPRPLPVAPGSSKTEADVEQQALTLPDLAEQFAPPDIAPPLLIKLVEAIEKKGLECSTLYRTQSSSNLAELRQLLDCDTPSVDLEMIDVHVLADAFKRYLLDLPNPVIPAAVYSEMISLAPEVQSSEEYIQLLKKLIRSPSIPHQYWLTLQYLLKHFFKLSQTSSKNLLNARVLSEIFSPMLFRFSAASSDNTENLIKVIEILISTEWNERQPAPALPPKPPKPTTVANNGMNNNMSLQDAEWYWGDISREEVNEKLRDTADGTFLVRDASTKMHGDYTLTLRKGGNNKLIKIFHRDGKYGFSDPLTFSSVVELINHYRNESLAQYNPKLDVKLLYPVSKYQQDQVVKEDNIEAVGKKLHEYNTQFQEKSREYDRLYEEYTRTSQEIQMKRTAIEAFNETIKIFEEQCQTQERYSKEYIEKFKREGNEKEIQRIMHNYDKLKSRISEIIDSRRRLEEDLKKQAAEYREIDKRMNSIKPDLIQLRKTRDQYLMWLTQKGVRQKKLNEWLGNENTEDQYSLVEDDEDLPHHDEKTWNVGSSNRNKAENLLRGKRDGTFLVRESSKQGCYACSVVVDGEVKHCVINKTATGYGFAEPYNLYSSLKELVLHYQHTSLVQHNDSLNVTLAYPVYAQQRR

COC[C@H]1OC(=O)c2coc3c2[C@@]1(C)C1=C(C3=O)[C@@H]2CCC(=O)[C@@]2(C)C[C@H]1OC(C)=O [Wortmanine]
dissociative half-life of the complex with PI3Kdelta (t1/2) (PI3Kdelta): around 300 min

Cn1c(=O)n(-c2ccc(C(C)(C)C#N)cc2)c2c3cc(-c4cnc5ccccc5c4)ccc3ncc21 [BEZ235]
dissociation from the target (PI3Kdelta): mili-seconds

CN[C@@H]1C[C@H]2O[C@@](C)([C@@H]1OC)n1c3ccccc3c3c4c(c5c6ccccc6n2c5c31)C(=O)NC4 [Staurosporine]
duration of the interaction with CDK8 (CDK8/Cyclin C): 20 min
